Data reported in patent US9420813B2, “Sweetener” (AJINOMOTO CO., INC., priority 2007, dated 2016).
*1 amine or outer side, *2 acyl side, *3 side chain or, on linkers, in order; H or OH if unused. Where no end group is shown, it is not given here. [ ]: non-standard residue; d: D form. γGlu = O=C(O)[C@H](CCC(=O)[*:2])N[*:1]; Abu = CC[C@H](N)C(=O)O

Experiments:
[1] = Quantitative sensory evaluation, improvement of body taste and bitterness of single high-intensity sweeteners (Examples 1 and 3); set-up: species or system human; conditions: for Bitterness: control 0, <0 improved; for Bitterness / Body taste: n=12; for Body taste: control 0, >0 improved; for improvement of the body taste (conclusion in words): APM, sucralose or Ace-K solutions, Tables 6 to 8 and 13 to 15
Experimental: The quantitative sensory evaluation test was performed as follows. As for standard solutions of each sweetener, the following compounds were used. The following standard solutions were adjusted so that they each have almost the same degree of sweetness.
iii) Sucralose (0.008 g/dl)
To distilled water containing each of the above sweeteners, γ-Glu-Cys-Gly (glutathione), γ-Glu-Val-Gly, or γ-Glu-Abu-Gly was added and mixed at concentrations of 0.0001 to 1 g/dl, and then the degree of the improvement of the body taste and the improvement of the bitterness on the sweet taste was measured.
When one of the mixtures is more acidic than the standard control solution, the pH of the sample solution was adjusted with NaOH to achieve a range of pH±0.2 with respect to the pH of the standard solution before use.
(§1) The sensory evaluation for the improvement of the body taste was performed with n=12 on the basis of the following criteria: a control (obtained by adding distilled water only and without adding glutathione and/or the peptide) was defined as 0, and by using the control as a standard, the following were defined: weak: −2 points; slightly weak: −1 point; slightly strong: 1 point, and strong: 2 points. A higher score than 0 means that the sample improved the body taste.
as §1, with “Alternatively, the” for “The”, “bitterness” for “body taste”, “lower” for “higher”, “improves” for “improved”, “bitterness.” for “body taste.”
The quantitative sensory evaluation test was performed as follows. As for standard solutions of each sweetener, the following compounds were used. The following standard solutions have been adjusted so as they each have almost the same degree of sweetness.
To distilled water containing each sweeteners, γ-Glu-Val-Gly or cinacalcet was mixed as a sample at concentrations of 0.0001 to 1 g/dl, respectively, and then each degree of the improvement of the body taste and the improvement of the bitterness on the sweet taste was measured.
When a mixture is more acidic than the standard control solution, the pH of the mixture was adjusted with NaOH to achieve a range of pH±0.2 with respect to the pH of the standard solution before use.
as §1, with “a sample)” for “glutathione and/or the peptide)”, “improves” for “improved”
Alternatively, the sensory evaluation for the improvement of the bitterness was performed with n=12 on the basis of the following criteria: a control (obtained with adding distilled water only and without adding a sample) was defined as 0, and by using the control as a standard, the following were defined: weak: −2 points; slightly weak: −1 point; slightly strong: 1 point, and strong: 2 points. A lower score than 0 means that the sample improves the bitterness.

[2] = Quantitative sensory evaluation test, intensity of kokumi-imparting activity; set-up: key to Kokumi intensity, initial and middle taste / Kokumi intensity, aftertaste / Taste profile: *: Unmeasurable: kokumi-imparting activity is too strong to measure by sensory evaluation
Experimental: The quantitative sensory evaluation test was performed as follows. […] When a sample is acidic when dissolved, the pH was adjusted with NaOH to pH 6.8 to 7.2 before use. Because it is known that glutathione can impart kokumi to a food, glutathione was used as a comparative control. The test was performed with n=3 based on the following sensory evaluation scores: control was given 0 points, glutathione addition was given 3 points. […] It should be noted that the term “initial and middle taste” is a collective term of the initial taste and middle taste.
The quantitative sensory evaluation test was performed as follows. […] When a sample is acidic when dissolved, the pH of the sample was adjusted with NaOH to pH 6.8 to 7.2 before use. The test was performed with n=5 based on the following sensory evaluation scores: control was given 0 point and glutathione addition was given 3 points.
The quantitative sensory evaluation test was performed as follows. […] As for a sample which is acidic when the sample is dissolved, pH of the sample was adjusted with NaOH to pH 6.8 to 7.2 before use. The test was performed with n=12 based on the following sensory evaluation scores: control: 0 point and glutathione addition: 3 points.

[3] = APM 0.025 g/dl, sample 0.001 g/dl
[4] = APM 0.025 g/dl, sample 0.001 g/dl (γ-Glu-Abu-Gly of Table 6)
[5] = Ace-K 0.025 g/dl, sample 0.001 g/dl
[6] = Ace-K 0.025 g/dl, sample 0.01 g/dl
[7] = sucralose 0.008 g/dl, sample 0.001 g/dl
[8] = sucralose 0.008 g/dl, sample 0.01 g/dl
[9] = sample 0.01 g/dl, control 0, glutathione 3 points, n=12
[10] = APM 0.025 g/dl, sample 0.0001 g/dl
[11] = Ace-K 0.025 g/dl, sample 0.0001 g/dl
[12] = sucralose 0.008 g/dl, sample 0.0001 g/dl
[13] = sample 0.01 g/dl, control 0, glutathione 3 points, n=5
[14] = APM 0.025 g/dl, sample 0.05 g/dl
[15] = Ace-K 0.025 g/dl, sample 0.05 g/dl
[16] = sucralose 0.008 g/dl, sample 0.05 g/dl
[17] = sample 0.1 g/dl, control 0, glutathione 3 points, n=3
[18] = sample 0.1 g/dl, control 0, glutathione 3 points, n=5
[19] = sample 0.1 g/dl, control 0, glutathione 3 points, n=12

Molecule | Bitterness [1, 3] | Body taste [1, 3] | Bitterness [1, 5] | Body taste [1, 5] | Bitterness [1, 7] | Body taste [1, 7] | Kokumi intensity, aftertaste [2, 9] | Kokumi intensity, initial and middle taste [2, 9] | Bitterness [1, 10] | Body taste [1, 10] | improvement of the body taste (conclusion in words) [1] | Taste profile [1, 11] | Bitterness [1, 11] | Body taste [1, 11] | Taste profile [1, 5] | Bitterness [1, 12] | Body taste [1, 12] | further results
[γGlu]-[Abu]-Gly | −0.1 points | 0.7 points | −0.6 points | 0.5 points | −0.1 points | 0.5 points | 2.0 points | 3.0 points |  |  |  |  |  |  |  |  |  | Taste profile [1, 3]: Sweet taste is enhanced in initial taste; Taste profile [1, 4]: Sweet taste is enhanced in initial taste; Bitterness [1, 4]: −0.1 points; Body taste [1, 4]: 1.5 points; Bitterness [1, 6]: −1.2 points; Body taste [1, 6]: 1.1 points; Bitterness [1, 8]: −0.1 points; Body taste [1, 8]: 1.0 points
C[C@@H](NCCCc1cccc(C(F)(F)F)c1)c1cccc2ccccc12 [Cinacalcet, (R)—N-(3-(3-(trifluoromethyl)phenyl)propyl)-1-(1-naphthyl)ethylamine, reference compound] | −0.5 points | 1.5 points | −0.3 points | 1.1 points | −0.2 points | 1.1 points |  |  | −0.2 points | 0.8 points | improve the body taste at almost the same concentration | Sweet taste with growth is enhanced in middle | −0.2 points | 0.6 points | Sweet taste with growth is enhanced in middle | −0.1 points | 0.5 points | 
[γGlu]-Val-Gly | −0.5 points | 1.3 points | −1.2 points | 1.2 points | −0.2 points | 1.3 points | 3.0 points | 3.0 points | −0.2 points | 0.5 points | improve the body taste at almost the same concentration | Sweet taste with growth is enhanced in middle | −0.6 points | 0.7 points | Sweet taste with growth is enhanced in middle | −0.1 points | 0.7 points | Kokumi intensity, aftertaste [2, 13]: 3.0 points; Kokumi intensity, initial and middle taste [2, 13]: 3.0 points; Kokumi intensity, aftertaste ([2]; sample 0.1 g/dl, n=5, symbol): *; Kokumi intensity, initial and middle taste ([2]; sample 0.1 g/dl, n=5, symbol): *; Taste profile ([2]; sample 0.1 g/dl, n=5, symbol): *
N[C@@H](CCC(=O)N[C@@H](CS)C(=O)NCC(=O)O)C(=O)O [γ-Glu-Cys-Gly, reference compound] |  |  |  |  |  |  |  |  |  |  |  |  |  |  |  |  |  | Taste profile [1, 14]: Sweet taste is wholly enhanced.; Bitterness [1, 14]: −0.5 points; Body taste [1, 14]: 1.0 points; Bitterness [1, 15]: −0.6 points; Body taste [1, 15]: 1.0 points; Taste profile [1, 16]: Sweet taste with growth is enhanced in middle; Bitterness [1, 16]: 0 points; Body taste [1, 16]: 1.0 points; Kokumi intensity, aftertaste [2, 17]: 3.0 points; Kokumi intensity, initial and middle taste [2, 17]: 3.0 points; Kokumi intensity, aftertaste [2, 18]: 3.0 points; Kokumi intensity, initial and middle taste [2, 18]: 3.0 points; Kokumi intensity, aftertaste [2, 19]: 3.0 points; Kokumi intensity, initial and middle taste [2, 19]: 3.0 points; Evaluation comments ([2]; sample 0.1 g/dl, n=3): Thickness,; Taste profile ([2]; sample 0.1 g/dl, n=5): Thickness,; Taste profile ([2]; sample 0.1 g/dl, n=12): Thickness,
